According to patent publication US20220133717A1, “RABEXIMOD IN THE TREATMENT OF RHEUMATOID ARTHRITIS” (CYXONE AB, priority 2020, published 2022):

Tests used:
healthy male volunteers = assay: Phase 1 clinical trial: safety and tolerability of single and multiple oral rising doses; type: in vivo, human
Source text: The Phase 1 study assessed the safety, tolerability, pharmacokinetics and pharmacodynamics of single and multiple oral rising doses of Rabeximod (in a capsule formulation) in healthy male volunteers. The study also included an open-label, randomised, two-period crossover part that was designed to investigate the effect of food on the pharmacokinetics of Rabeximod. In total, 87 healthy male subjects were enrolled into the study.

[1] = tested on: patients with moderate or severe active rheumatoid arthritis; assay: Phase II clinical trial: safety (AEs, physical examinations, vital signs, ECG)
Source text: The Phase II study was a randomised, parallel-group, double-blind, dose-ranging, placebo-controlled study of Rabeximod in patients with moderate or severe active RA with an inadequate response to methotrexate.
Safety assessments included AEs, vital signs, weight, physical examination, 12-lead ECG and safety laboratory tests (serum chemistry, haematology and urinalysis).
Safety measurements for this study included AEs, clinical laboratory tests, physical examinations, vital signs and resting 12-lead ECGs.

[2] = tested on: patients with moderate or severe active rheumatoid arthritis; assay: Phase II clinical trial: efficacy (ACR20/50, DAS28, EULAR response, ACR components); type: in vivo, human
Experimental: The primary objective of this study was to evaluate the efficacy (American College of Rheumatology 20) of Rabeximod administered orally once daily for 12 weeks in combination with a stable dose of methotrexate in patients with moderate or severe active rheumatoid arthritis. Efficacy was evaluated by American College of Rheumatology 20 (66/68 joint count) after 12 weeks of treatment.
The primary endpoint of this study is the American College of Rheumatology (ACR20) 20 improvement measured after 12 weeks of treatment with study drug. The ACR20 is a composite score defined as an improvement of 20% in the number of swollen and tender joints and a 20% improvement in 3 of the following 5: • Patient self-assessed disability by modified Health Assessment Questionnaire (mHAQ) • Physician Global assessment • Subject Global assessment • Patient pain assessment • Acute phase reactant (C-reactive protein [CRP]) Secondary efficacy endpoints were as follows: • ACR20 improvement measured after 4 and 8 weeks of treatment • Subgroup analysis of ACR20 results from patients enrolled with baseline CRP >1.5 mg/dL. • ACR50/70 improvement measured after 4, 8 and 12 weeks • Original Disease Activity Score (DAS) change from baseline (according to the European League Against Rheumatism [EULAR] Response Criteria). Note: the Original DAS was replaced with DAS28 • Change from baseline in: number of swollen/tender joints, morning stiffness duration. Subject and Physician Global assessments, pain assessed by Visual Analogue Scale (VAS), self-assessed physical disability (mHAQ), erythrocyte sedimentation rate (ESR) and CRP • The evaluation of pharmacokinetic (PK) and pharmacodynamic (PD) high sensitive CRP, TNF-a, interleukin-6 [IL-6] and anti-cyclic citrullinated peptide antibody [anti-CCP]) over time
This was a multicentre, multinational, dose-ranging, randomised, double-blind, multiple dose, placebo-controlled, parallel-group study of Rabeximod administered orally in a total of 225 enrolled patients with moderate or severe active RA. All patients must have been receiving weekly methotrexate treatment for at least 16 weeks (with unchanged doses for at least 8 weeks) up to Day 0 of study.
Diagnosis of RA was based on the American Rheumatism Association (ARA) 1987 revised criteria, having an ACR global functional class of 1 to 3, stable methotrexate dose of at least 15 mg per week and central laboratory CRP level at study entry of at least 1.5 mg/dL and clinical findings of active disease (at least 6 swollen and 6 tender joints to palpation). Individual patient duration in the study was approximately 126 days (a 14-day screening period, an 84-day treatment period [12 weeks], and a 28 day [4-week] follow-up period).
After meeting the inclusion and exclusion criteria and providing informed consent, patients were randomly assigned (1:1:1:1 ratio) to receive 1 of the following treatments: • 6.25 mg Rabeximod • 15 mg Rabeximod • 37.5 mg Rabeximod • Placebo
An assessment of tender and swollen joints was performed for the ACR response criteria. Joints to be evaluated for disease activity assessment (using the ACR 66/68 joint count) included the following: temporomandibular, sternoclavicular, acromioclavicular, shoulder, elbow, wrist, all 5 metacarpophalangeal joints, 4 proximal interphalangeal joints, 4 distal interphalangeal, thumb interphalangeal joint, hip (for tenderness only), knee, ankle, tarsus, 5 metatarsophalangeal, 4 proximal interphalangeal and foot thumb interphalangeal joints at each side. In accordance with the protocol, an independent joint reviewer performed the rheumatology examination, where possible. If an independent joint reviewer was not available, the same examiner performed all rheumatology examinations for a patient throughout the study.
Patient satisfaction in performing activities of daily living was assessed using the mHAQ. […]

Cc1cc2nc3c4cc(Cl)ccc4n(CC(=O)NCCN(C)C)c3nc2cc1C [Rabeximod, 9-Chloro-2,3-dimethyl-6-(N,N-dimethylaminoethylamino-2-oxoethyl)-6H-indolo-[2,3-b]quinoxaline]
tolerability (healthy male volunteers; multiple dose of 600 mg loading followed by 100 mg): less well tolerated due to phototoxicity reactions
tolerability (healthy male volunteers; multiple oral doses up to a 200 mg loading dose followed by 50 mg maintenance dose): well tolerated
tolerability (healthy male volunteers; single dose of 600 mg): less well tolerated due to phototoxicity reactions
tolerability (healthy male volunteers; single oral doses up to 400 mg): well tolerated
proportion of patients experiencing study drug-related AEs ([1]; 37.5 mg group (32 patients)): 58.2%
deaths during the study ([1]; 12 weeks treatment, 4 weeks follow-up): No deaths
proportion of patients experiencing study drug-related AEs ([1]; Rabeximod groups pooled (placebo 11.1%)): 34.5%
majority of changes in physical examinations ([1]; all occurred in the Rabeximod group, most reported as AEs): skin abnormalities
relation of skin abnormality events to dose ([1]; majority in 37.5 mg group, then 15 mg, then 6.25 mg): dose response
tolerability ([1]; once daily at 6.25, 15 and 37.5 mg, RA patients taking methotrexate): well-tolerated
changes in vital signs and 12-lead ECGs ([1]; over the course of the study): no notable changes
percentage mean reduction in joint pain, comparison of dose groups ([2]; 15 mg group): best results
percentage of patients achieving ACR50, comparison of dose groups ([2]; 15 mg group): best results
reduction in duration of morning stiffness, comparison of dose groups ([2]; 15 mg group, especially at week 16): best results
percentage of patients achieving ACR50 response compared with placebo ([2]; "At Week" (number not given), 6.25, 15 and 37.5 mg groups): higher percentage
change from baseline in each component of the ACR response (joint count 66/68, Global assessments VAS, joint pain, HAQ-DI, CRP, ESR) ([2]; Rabeximod groups): notable decrease (improvement)
change in mean DAS28 score from baseline ([2]; Week 12, 6.25 mg group (placebo −0.983)): −1.063 points
change in mean DAS28 score from baseline ([2]; Week 12, 15 mg group (placebo −0.983)): −1.214 points
change in mean DAS28 score from baseline ([2]; Week 12, 37.5 mg group (placebo −0.983)): −1.204 points
proportion of patients achieving ACR20 compared with placebo ([2]; Week 12, Rabeximod groups): larger proportion
increases in the proportions of patients achieving ACR50 ([2]; Week 16): greater
percentage mean reduction from baseline in swollen (66) and tender (68) joint counts, Physician and Subject Global assessments ([2]; Week 16): notable improvements
percentage of patients achieving a good or moderate EULAR response ([2]; Week 16, 6.5 mg group (placebo 38.5%)): 37.8%
proportions of patients achieving ACR20, comparison of dose groups ([2]; Week 16, 15 mg group): best results
reduction in swollen/tender joint counts and Global assessments, comparison of dose groups ([2]; Week 16, 15 mg group): best results
percentage of patients achieving a good or moderate EULAR response ([2]; Week 16, 15 mg group (placebo 38.5%)): 67.7%
percentage of patients achieving a good or moderate EULAR response ([2]; Week 16, 37.5 mg group (placebo 38.5%)): 55.8%
proportions of patients achieving ACR20 ([2]; Week 16, Rabeximod groups): continued to increase
duration of morning stiffness compared with placebo ([2]; majority of time points, Rabeximod groups): greater reductions (improvement)
improvement in symptoms compared with placebo (plus methotrexate) ([2]; onset at least 8-12 weeks after first dose, further improvement at Week 16): greater improvement
percentage mean reduction from baseline in joint pain ([2]; week 1): notable
